Reference: patent US4803208A, “Opiate agonists and antagonists” (Sloan-Kettering Institute For Cancer Research, priority 1985, dated 1989)
“And” between values parts separate entries of the source, which are not always exact repeats. Equal entries are not always repeated. “Also recorded” adds a separate entry of the source. Structures can show the parent of a compound that is named as a salt. Where two headings read alike, the source gives them in different places.

Key:
opiate receptors [1] = assay type: binding, rat; details: for Change in Binding (Percent), [^3 H]D-ala^2 -D-leu^5 -enkephalin: compound 2 μM, 30 min 25° C., four washes, ligand 1 nM, mean ± s.e.m. of three experiments; for irreversible inhibition of [^3 H]D-ala^2 -D-leu^5 -enkephalin binding (in words): 2 μM
Description: (§1) In brief, brain membranes were prepared and triplicate samples incubated with [^3 H] labelled ligands and designated drugs for 30 minutes at 25° C., followed by filtration over Whatman GF/B filters. […] Specific binding is defined as the difference in binding in the presence and absence of levallorphan (1 uM). […] Each tissue wash included incubation for 10 min. at 37° C., centrifugation and resuspension. Irreversibility experiments included four washes before binding assays were performed, unless otherwise stated.
(§2) To determine which compounds did irreversibly bind to the receptor, membranes were incubated with the various drugs (2 μM) and then the free and reversibly bound drug washed away (Table 2).
(§3) Rat brain membranes were prepared and incubated with the above drugs (2 μM) for 30 min at 25° C. and the tissue was then washed four times as described in the text to remove reversibly bound material. The results represent the means ±s.e.m. of three separate experiments utilizing [^3 H]D-ala^2 -D-leu^5 -enkephal in (1 nM) and [^3 H]dihydromorphine (0.8 nM). […] After 15 min the solution was added to tissue.

Duration of action = assay type: in vivo; details: compared to conventional / currently available opiates
opiate receptors [2] = experiment: Irreversible opiate receptor binding/blocking (general statements); details: for removal of reversible ligand by washing (in words): two washes with incubation at 37° for 10 min; for potency of irreversible block of opiate binding in vitro relative to corresponding hydrazone: azine vs corresponding hydrazone
Description: as §1

prolactin release = experiment: Prolactin release in vivo
growth hormone release = experiment: Growth hormone release in vivo
[3] = Reaction of hydrazones to azines in solution; details: acidic aqueous solutions; absolute ethanol or water/acetic acid (1%), 15 min
[4] = test system: high affinity, or mu1, binding sites; details: Pasternak et al.; Zhang and Pasternak; cited from earlier work
rats [5] = assay type: in vivo, rat; details: 50 mg/kg intravenously
Description: They were then food deprived for 24 hours but allowed free access to water. Five rats received saline, four received naloxone and three naloxazone. […] The animals were then given free access to food for 1 hour and their weight gain noted. Thus, eating was measured 24 hours after the administration of the drugs and after 24 hours of food deprivation.

mice [6] = experiment: Oxymorphonazine analgesia in vivo (Tail-Flick Assay); design: species or system mouse; details: 25 μg in 5 μl of artificial CSF; for Analgesia (percent), 20 hr.: groups differ p<0.015, Fisher's Exact Test
Description: Mice were injected with either oxymorphone or oxymorphonazine (both 25 μg in 5 μl of artificial CSF) under Ethrane/oxygen anesthesia and tested for analgesia at the stated time. Analgesia was determined by Tail-Flick Assay. Quantal criteria, the doubling of the baseline latency for each individual animal, was used. At 20 hours, the oxymorphone and oxymorphonazine groups differed from each other at p<0.015 level, as determined by Fisher's Exact Test.

opiate receptors [7] = molecular target: T1, opiate receptors (Rattus norvegicus, UniProt P33535); experiment: biochemical; assay type: binding; details: for irreversible inhibition of [^3 H]dihydromorphine binding (in words): 2 μM, various concentrations in b75 (FIG. 2); for inhibition at 2 µM: 0.5 h, read-out: Change in Binding (Percent), [^3 H]dihydromorphine
T1 construct: Rat brain homogenates were prepared as described; from tissue; host or cells: rat brain homogenate / membranes
T1 sequence (P33535 whole entry): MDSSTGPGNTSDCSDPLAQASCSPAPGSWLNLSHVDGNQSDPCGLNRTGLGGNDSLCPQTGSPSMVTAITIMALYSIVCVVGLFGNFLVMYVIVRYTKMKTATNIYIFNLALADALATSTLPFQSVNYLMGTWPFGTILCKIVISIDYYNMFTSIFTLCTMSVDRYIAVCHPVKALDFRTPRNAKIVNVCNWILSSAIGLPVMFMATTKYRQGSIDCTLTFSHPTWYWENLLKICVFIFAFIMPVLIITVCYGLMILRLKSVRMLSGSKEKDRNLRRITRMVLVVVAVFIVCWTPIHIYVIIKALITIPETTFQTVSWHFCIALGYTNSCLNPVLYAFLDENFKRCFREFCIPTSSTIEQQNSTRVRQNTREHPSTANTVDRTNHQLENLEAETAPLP
Description: Results are from a single experiment which has been replicated three times.
as §1, §2, §3
After incubating membranes with the specified drug, the membranes were extensively washed and a binding assay with [^3 H]dihydromorphine performed.

rats [8] = details: cited from earlier work
mice [9] = experiment: In vivo actions of naltrexone-oxymorphonazine (tailflick latencies); design: species or system mouse; details: for Tailflick Latencies, Prior: baseline prior to 10 mg/kg s.c.
Description: Groups of mice were injected subcutaneously with the stated drug and latencies in the tailflick test determined and compared to those obtained prior to testing. […] This compares with an analgesic rate of 100% of animals receiving oxymorphone HCl in other control experiments.

opiate receptors [10] = molecular target: T1, opiate receptors; experiment: biochemical; assay type: binding
Description: as §1
IC50 values were determined by least square fits of a log-probit curve. The results are the means ±s.e.m. of three IC50 values determined in separate experiments.

opiate receptors [11] = experiment: Irreversible inhibition of ^3 H-DADL binding, 100 nM, two washes; design: species or system rat; details: for ^3 H-DADL Binding: 30 min 25° C., DADL 1 nM, control 1800 ± 53 cpm, triplicate ± S.E.M.; for ^3 H-DADL Binding, change: vs control, 30 min
Description: (§4) Each wash consisted of centrifugation, incubation at 37° for 10 min and centrifugation again. […] Bindig was then performed with either ^3 H-D-ala^2 -D-leu^5 -enkephalin (DADL) or ^3 H-dihydromorphine (DHM) both at 1 nM. Specific binding was determined as that displaceable by levallorphan at 1000 nM. All values represent the means of triplicate samples ±S.E.M.

opiate receptors [12] = molecular target: T1, opiate receptors; experiment: Irreversible inhibition of ^3 H-DHM binding, 100 nM, two washes; details: for ^3 H-DHM Binding: 100 nM, 30 min 25° C., two washes, DHM 1 nM, control 3447 ± 273 cpm, triplicate ± S.E.M.; for inhibition at 0.1 µM: 0.5 h, read-out: ^3 H-DHM Binding, change
Description: as §4

[13] = compound 2 μM, 30 min 25° C., four washes, ligand 0.8 nM, mean ± s.e.m. of three experiments

C=CCN1CCC23c4c5ccc(O)c4OC2C(=NN=C2CCC4(O)C6Cc7ccc(O)c8c7C4(CCN6CC=C)C2O8)CCC3(O)C1C5 (stereo not drawn) [Naloxonazine, naloxonazine]
eliminated [^3 H]D-ala^2 -D-leu^5 -enkephalin binding (opiate receptors [1]; 2 uM, 30 min): over 90%
Change in Binding (Percent), [^3 H]D-ala^2 -D-leu^5 -enkephalin (opiate receptors [1]): -93% ± 4
duration of action (in words) (Duration of action): in the order of days
duration of action (in words) (Duration of action; listed as naloxonazine): lasting far longer than conventional opiates
dose reproducing the irreversible blockade of opiate receptor binding by naloxazone (opiate receptors [2]; low doses): 50 nM

CN1CC[C@]23c4c5ccc(O)c4O[C@H]2[C@@H](O)C=C[C@H]3[C@H]1C5 [Morphine, morphine]
hormone release by morphine (in words) (prolactin release; prolactin and growth hormone): releases both hormones
irreversible inhibition of opiate receptor binding / activity (in words) (opiate receptors [2]): show no irreversible inhibition
hormone release by morphine (in words) (growth hormone release; prolactin and growth hormone): releases both hormones

C=CCN1CCC23c4c5ccc(O)c4OC2C(=NN)CCC3(O)C1C5 (stereo not drawn) [Naloxazone, naloxazone]
stability in solution: reaction to azine (in words) [3]: no azine formation could be detected
irreversible inhibition of [^3 H]D-ala^2 -D-leu^5 -enkephalin binding (in words) (opiate receptors [1]): neither naloxazone nor oxymorphazone irreversibly inhibited the binding
Change in Binding (Percent), [^3 H]D-ala^2 -D-leu^5 -enkephalin (opiate receptors [1]): +15 ± 5%
blocking opiate analgesia / effect on opiate-induced lethality (in words) [4]: blocking opiate analgesia with little effect on other classes of binding sites or opiate-induced lethality
effect on basal levels of prolactin, naloxazone (in words) (prolactin release; basal levels): significant reduction in the basal levels of the drugs
depression of morphine-induced release of prolactin (prolactin release; in vivo): over 80%
effect on prolactin release (in words) (prolactin release; in vivo): selectively lowering prolactin release
effect on feeding (in words) (rats [5]): significant effect as an appetite suppressant
Amounts eaten, individual animals (rats [5]; 1 hour free access to food, 24 hours after drug): 3.3 grams and 2.4 grams and 3.5 grams
Amounts eaten, Mean ± SEM (rats [5]; 1 hour free access to food, 24 hours after drug, saline 4.78 ± 0.42, significant at the p 0.05 level (ANOVA)): 3.07 ± 0.34 grams
dose for irreversible blockade of opiate receptor binding (naloxazone) (opiate receptors [2]; high doses): 2 µM
effect on basal levels of growth hormone, naloxazone (in words) (growth hormone release; basal levels): significant reduction in the basal levels of the drugs
effect on growth hormone release (in words) (growth hormone release; in vivo): actually increased; also recorded: without effecting growth hormone release elicited by morphine

CN1CC[C@]23c4c5ccc(O)c4O[C@H]2C(=O)CC[C@@]3(O)[C@H]1C5 [Oxymorphone, oxymorphone]
Analgesia (percent), 1 hr. (mice [6]): 100%
Analgesia (percent), 4 hr. (mice [6]): 78%
Analgesia (percent), 10 hr. (mice [6]): 33%
Analgesia (percent), 20 hr. (mice [6]): 0%
removal of reversible ligand by washing (in words) (opiate receptors [2]): effectively removed

CN1CCC23c4c5ccc(O)c4OC2C(=NN)CCC3(O)C1C5 (stereo not drawn) [Oxymorphazone, oxymorphazone]
stability in solution: reaction to azine (in words) [3]: no azine formation could be detected
irreversible inhibition of [^3 H]D-ala^2 -D-leu^5 -enkephalin binding (in words) (opiate receptors [1]): neither naloxazone nor oxymorphazone irreversibly inhibited the binding
Change in Binding (Percent), [^3 H]D-ala^2 -D-leu^5 -enkephalin (opiate receptors [1]): 43% ± 24
irreversible inhibition of [^3 H]dihydromorphine binding (in words) (opiate receptors [7]): neither naloxazone nor oxymorphazone irreversibly inhibited the binding
inhibition at 2 µM (opiate receptors [7]; [13]): -3%

O=C1CC[C@@]2(O)[C@H]3Cc4ccc(O)c5c4[C@@]2(CCN3CC2CC2)[C@H]1O5 [Naltrexone, naltrexone]
suppression of eating behavior (known) (rats [8]): effectively suppress eating behavior in rats
Tailflick Latencies, After 20 min (mice [9]; 10 mg/kg s.c.): 2.37 ± 0.31 s
Tailflick Latencies, After 40 min (mice [9]; 10 mg/kg s.c.): 2.59 ± 0.35 s
Tailflick Latencies, Prior (mice [9]): 2.63 ± 0.27 s
removal of reversible ligand by washing (in words) (opiate receptors [2]): effectively removed

Oc1ccc2c3c1OC1C(=NN=C4CCC5(O)C6Cc7ccc(O)c8c7C5(CCN6CC5CC5)C4O8)CCC4(O)C(C2)N(CC2CC2)CCC314 (stereo not drawn) [Naltrexonazine, naltrexonazine]
Change in Binding (Percent), [^3 H]D-ala^2 -D-leu^5 -enkephalin (opiate receptors [1]): -97 ± 3%
duration of action (in words) (Duration of action): in the order of days
duration of action (in words) (Duration of action; listed as naltrexonazine): lasting far longer than conventional opiates
IC50 (opiate receptors [10]): 1.16 nM
^3 H-DADL Binding (opiate receptors [11]): 653 ± 85 cpm
^3 H-DADL Binding, change (opiate receptors [11]): -65%
inhibition at 2 µM (opiate receptors [7]; [13]): 88 ± 12%
^3 H-DHM Binding (opiate receptors [12]): 1183 ± 128 cpm
inhibition at 0.1 µM (opiate receptors [12]): 66%
Tailflick Latencies, After 20 min (mice [9]; 10 mg/kg s.c.): 2.50 ± 0.36 s
Tailflick Latencies, After 40 min (mice [9]; 10 mg/kg s.c.): 2.74 ± 0.49 s
Tailflick Latencies, Prior (mice [9]): 2.50 ± 0.34 s
potency of irreversible block of opiate binding in vitro relative to corresponding hydrazone (opiate receptors [2]): 20-40 fold
selectivity for mu1 class versus naloxone and naltrexone (in words) (opiate receptors [2]; compared with naloxone and naltrexone): far more selective for the mu1 class of opiate binding sites

CN1CCC23c4c5ccc(O)c4OC2C(=NN=C2CCC4(O)C6Cc7ccc(O)c8c7C4(CCN6CC4CC4)C2O8)CCC3(O)C1C5 (stereo not drawn) [Naltrexone-oxymorphonazine, naltrexone-oxymorphonazine]
^3 H-DADL Binding (opiate receptors [11]): 1205 ± 157 cpm
^3 H-DADL Binding, change (opiate receptors [11]): -33%
^3 H-DHM Binding (opiate receptors [12]): 1487 ± 120 cpm
inhibition at 0.1 µM (opiate receptors [12]): 57%
Tailflick Latencies, After 20 min (mice [9]; 10 mg/kg s.c.): 2.20 ± 0.35 s
Tailflick Latencies, After 40 min (mice [9]; 10 mg/kg s.c.): 2.29 ± 0.31 s
Tailflick Latencies, Prior (mice [9]): 2.44 ± 0.32 s
animals analgesic (in words) (mice [9]; doubling of baseline latencies, 10 mg/kg s.c.): none of the animals receiving the mixed azine (naltrexone-oxymorphonazine) were analgesic
action in vivo (in words) (mice [9]; in vivo tests of mixed agonist/antagonist compounds): act as antagonists
irreversible inhibition of opiate receptor binding / activity (in words) (opiate receptors [2]): appear to irreversibly bind the opiate receptors

NN=C1CCC2(O)C3Cc4ccc(O)c5c4C2(CCN3CC2CC2)C1O5 (stereo not drawn) [Naltrexazone, naltrexazone]
stability in solution: reaction to azine (in words) [3]: A trace amount of azine was present
irreversible inhibition of [^3 H]D-ala^2 -D-leu^5 -enkephalin binding (in words) (opiate receptors [1]): small amount of inhibition
Change in Binding (Percent), [^3 H]D-ala^2 -D-leu^5 -enkephalin (opiate receptors [1]): -17 ± 19%
IC50 (opiate receptors [10]): 1.7 ± 0.2 nM
irreversible inhibition of [^3 H]dihydromorphine binding (in words) (opiate receptors [7]): small amount of inhibition
inhibition at 2 µM (opiate receptors [7]; [13]): 31 ± 26%

CN1CCC23c4c5ccc(O)c4OC2C(=NN=C2CCC4(O)C6Cc7ccc(O)c8c7C4(CCN6C)C2O8)CCC3(O)C1C5 (stereo not drawn) [Oxymorphonazine, oxymorphonazine]
Change in Binding (Percent), [^3 H]D-ala^2 -D-leu^5 -enkephalin (opiate receptors [1]): -59 ± 3%
duration of action (in words) (Duration of action): lasting far longer than conventional opiates
inhibition at 2 µM (opiate receptors [7]): 71 ± 4%
Analgesia (percent), 1 hr. (mice [6]): 100%
Analgesia (percent), 4 hr. (mice [6]): 100%
Analgesia (percent), 10 hr. (mice [6]): 100%
Analgesia (percent), 20 hr. (mice [6]): 44%
potency of irreversible block of opiate binding in vitro relative to corresponding hydrazone (opiate receptors [2]): 20-40 fold

CN1CC[C@]23c4c5ccc(O)c4O[C@H]2C(=O)CC[C@@]3(O)[C@H]1C5 [oxymorphone HCl]
analgesic rate (mice [9]; other control experiments): 100%
